Species: Rattus norvegicus
Test: DrugMatrix - Regimen: Daily Repeat
Assay type: toxicity, organism-based, Sprague-Dawley
Set-up: regimen Daily Repeat, gender Male, age 6-8 weeks
Settings: in vivo, po, route oral GAVAGE, vehicle .5 % CMC; for BASOPHIL / EOSINOPHIL / ERYTHROCYTE COUNT / HEMATOCRIT / HEMOGLOBIN / LEUKOCYTE COUNT / LYMPHOCYTE / MEAN CORPUSCULAR HEMOGLOBIN / MEAN CORPUSCULAR HEMOGLOBIN CONCENTRATION / MEAN CORPUSCULAR VOLUME / MONOCYTE / NEUTROPHIL / PLATELET COUNT: tissue Blood; for ALANINE AMINOTRANSFERASE / ALBUMIN / ALKALINE PHOSPHATASE / ASPARTATE AMINOTRANSFERASE / BLOOD UREA NITROGEN / CHLORIDE / CHOLESTEROL / CREATINE PHOSPHOKINASE / CREATININE / GLUCOSE / PHOSPHORUS / POTASSIUM / SODIUM / TOTAL BILIRUBIN / TOTAL PROTEIN: tissue Plasma
[1] = 50 mg/kg, 72 h, dose level Low, time 3 day
[2] = 50 mg/kg, 120 h, dose level Low, time 5 day
[3] = 1200 mg/kg, 72 h, dose level High, time 3 day
[4] = 1200 mg/kg, 120 h, dose level High, time 5 day

CCN1CCC[C@H]1CNC(=O)c1cc(S(N)(=O)=O)ccc1OC [LEVOSULPIRIDE]
BASOPHIL [1]: 0% | EOSINOPHIL [1]: 0.33% | ERYTHROCYTE COUNT [1]: 5.59 x10E6/uL | HEMATOCRIT [1]: 33.77% | HEMOGLOBIN [1]: 13.77 G/DL | LEUKOCYTE COUNT [1]: 14.5 x10E3/uL | LYMPHOCYTE [1]: 87% | MEAN CORPUSCULAR HEMOGLOBIN [1]: 24.6 pg | MEAN CORPUSCULAR HEMOGLOBIN CONCENTRATION [1]: 40.77 G/DL | MEAN CORPUSCULAR VOLUME [1]: 60.4 fL | MONOCYTE [1]: 1.67% | NEUTROPHIL [1]: 11% | PLATELET COUNT [1]: 1162.67 x10E3/uL | ALANINE AMINOTRANSFERASE [1]: 41 u/L | ALBUMIN [1]: 3.7 G/DL | ALKALINE PHOSPHATASE [1]: 441.67 u/L | ASPARTATE AMINOTRANSFERASE [1]: 64 u/L | BLOOD UREA NITROGEN [1]: 13.33 mg/dL | CHLORIDE [1]: 106.33 MEQ/L | CHOLESTEROL [1]: 70.33 mg/dL | CREATINE PHOSPHOKINASE [1]: 137 u/L | CREATININE [1]: 0.5 mg/dL | GLUCOSE [1]: 187.67 mg/dL | PHOSPHORUS [1]: 11.53 mg/dL | POTASSIUM [1]: 6.6 MEQ/L | SODIUM [1]: 150.33 MEQ/L | TOTAL BILIRUBIN [1]: 0.57 mg/dL | TOTAL PROTEIN [1]: 6 G/DL | BASOPHIL [2]: 0% | EOSINOPHIL [2]: 0.33% | ERYTHROCYTE COUNT [2]: 6.32 x10E6/uL | HEMATOCRIT [2]: 37.23% | HEMOGLOBIN [2]: 14.57 G/DL | LEUKOCYTE COUNT [2]: 13.63 x10E3/uL | LYMPHOCYTE [2]: 80.67% | MEAN CORPUSCULAR HEMOGLOBIN [2]: 23.03 pg | MEAN CORPUSCULAR HEMOGLOBIN CONCENTRATION [2]: 39.13 G/DL | MEAN CORPUSCULAR VOLUME [2]: 58.9 fL | MONOCYTE [2]: 2.67% | NEUTROPHIL [2]: 16.33% | PLATELET COUNT [2]: 1180.67 x10E3/uL | ALANINE AMINOTRANSFERASE [2]: 42 u/L | ALBUMIN [2]: 3.7 G/DL | ALKALINE PHOSPHATASE [2]: 336 u/L | ASPARTATE AMINOTRANSFERASE [2]: 62.33 u/L | BLOOD UREA NITROGEN [2]: 13 mg/dL | CHLORIDE [2]: 106 MEQ/L | CHOLESTEROL [2]: 67.67 mg/dL | CREATINE PHOSPHOKINASE [2]: 137.33 u/L | CREATININE [2]: 0.57 mg/dL | GLUCOSE [2]: 188.67 mg/dL | PHOSPHORUS [2]: 10.97 mg/dL | POTASSIUM [2]: 6.83 MEQ/L | SODIUM [2]: 150.67 MEQ/L | TOTAL BILIRUBIN [2]: 0.4 mg/dL | TOTAL PROTEIN [2]: 5.97 G/DL | BASOPHIL [3]: 0% | EOSINOPHIL [3]: 0.5% | ERYTHROCYTE COUNT [3]: 6.49 x10E6/uL | HEMATOCRIT [3]: 38.15% | HEMOGLOBIN [3]: 15.2 G/DL | LEUKOCYTE COUNT [3]: 14.55 x10E3/uL | LYMPHOCYTE [3]: 86% | MEAN CORPUSCULAR HEMOGLOBIN [3]: 23.4 pg | MEAN CORPUSCULAR HEMOGLOBIN CONCENTRATION [3]: 39.85 G/DL | MEAN CORPUSCULAR VOLUME [3]: 58.75 fL | MONOCYTE [3]: 0.5% | NEUTROPHIL [3]: 13% | PLATELET COUNT [3]: 1325.5 x10E3/uL | ALANINE AMINOTRANSFERASE [3]: 42 u/L | ALBUMIN [3]: 4 G/DL | ALKALINE PHOSPHATASE [3]: 363 u/L | ASPARTATE AMINOTRANSFERASE [3]: 58.33 u/L | BLOOD UREA NITROGEN [3]: 16.67 mg/dL | CHLORIDE [3]: 104 MEQ/L | CHOLESTEROL [3]: 80 mg/dL | CREATINE PHOSPHOKINASE [3]: 154.33 u/L | CREATININE [3]: 0.6 mg/dL | GLUCOSE [3]: 176.67 mg/dL | PHOSPHORUS [3]: 12.6 mg/dL | POTASSIUM [3]: 7.23 MEQ/L | SODIUM [3]: 150 MEQ/L | TOTAL BILIRUBIN [3]: 0.67 mg/dL | BASOPHIL [4]: 0% | EOSINOPHIL [4]: 0.5% | ERYTHROCYTE COUNT [4]: 5.88 x10E6/uL | HEMATOCRIT [4]: 35.5% | HEMOGLOBIN [4]: 15 G/DL | LEUKOCYTE COUNT [4]: 12.3 x10E3/uL | LYMPHOCYTE [4]: 85.5% | MEAN CORPUSCULAR HEMOGLOBIN [4]: 25.5 pg | MEAN CORPUSCULAR HEMOGLOBIN CONCENTRATION [4]: 42.4 G/DL | MEAN CORPUSCULAR VOLUME [4]: 60.25 fL | MONOCYTE [4]: 4.5% | NEUTROPHIL [4]: 9.5% | PLATELET COUNT [4]: 1166 x10E3/uL | ALANINE AMINOTRANSFERASE [4]: 43 u/L | ALBUMIN [4]: 3.65 G/DL | ALKALINE PHOSPHATASE [4]: 219.5 u/L | ASPARTATE AMINOTRANSFERASE [4]: 64 u/L | BLOOD UREA NITROGEN [4]: 16 mg/dL | CHLORIDE [4]: 106.5 MEQ/L | CHOLESTEROL [4]: 65.5 mg/dL | CREATINE PHOSPHOKINASE [4]: 164 u/L | CREATININE [4]: 0.6 mg/dL | GLUCOSE [4]: 166.5 mg/dL | PHOSPHORUS [4]: 11.95 mg/dL | POTASSIUM [4]: 6.7 MEQ/L | SODIUM [4]: 151.5 MEQ/L | TOTAL BILIRUBIN [4]: 0.35 mg/dL | TOTAL PROTEIN [4]: 6 G/DL

— ChEMBL document CHEMBL3885881, “DrugMatrix”
